The subject of the test is antigen specific CD8+ T cells. Description: Addition of IL-21 to NEO-STIM.RNA cultures. The format is cell-based, human. From the text: In order to improve the NEO-STIM protocol using RNA, IL-21 was explored as an addition to the protocol.
In order to improve the NEO-STIM protocol using RNA, IL-21 was explored as an addition to the protocol. […] Using IL-21 in NEO-STIM increases central memory phenotype in antigen specific CD8^+ T cells.

Turning to “IL-21: cytokine added to the NEO-STIM protocol using RNA”, the “effect on expansion of T cells” value (NEO-STIM process using RNA encoded neoantigenic epitopes) is listed as “improves expansion of T cells”. Moreover, for the setting “NEO-STIM.RNA cultures”, the “effect on central memory phenotype in antigen specific CD8+ T cells” value was “increases the central memory phenotype” and the “effect on priming of specific T cells” value is reported as “improves the priming of specific T cells”.

Source of the values: patent publication US20260115288A1, “T CELL MANUFACTURING COMPOSITIONS AND METHODS” (BioNTech US Inc., priority 2022, published 2026).
